Experimental findings from ChEMBL document CHEMBL1155991, “Discovery of isoxazole voltage gated sodium channel blockers for treatment of chronic pain” (Bioorg Med Chem Lett, 2009) are described below.

In series [1] the target is T1, Sodium channel protein type 9 subunit alpha (Homo sapiens, UniProt Q15858). In words: Inhibition of human Nav1.7 channel expressed in HEK293 cells by FRET assay. Format: cell-based.
Target sequence in this assay (Q15858 whole entry): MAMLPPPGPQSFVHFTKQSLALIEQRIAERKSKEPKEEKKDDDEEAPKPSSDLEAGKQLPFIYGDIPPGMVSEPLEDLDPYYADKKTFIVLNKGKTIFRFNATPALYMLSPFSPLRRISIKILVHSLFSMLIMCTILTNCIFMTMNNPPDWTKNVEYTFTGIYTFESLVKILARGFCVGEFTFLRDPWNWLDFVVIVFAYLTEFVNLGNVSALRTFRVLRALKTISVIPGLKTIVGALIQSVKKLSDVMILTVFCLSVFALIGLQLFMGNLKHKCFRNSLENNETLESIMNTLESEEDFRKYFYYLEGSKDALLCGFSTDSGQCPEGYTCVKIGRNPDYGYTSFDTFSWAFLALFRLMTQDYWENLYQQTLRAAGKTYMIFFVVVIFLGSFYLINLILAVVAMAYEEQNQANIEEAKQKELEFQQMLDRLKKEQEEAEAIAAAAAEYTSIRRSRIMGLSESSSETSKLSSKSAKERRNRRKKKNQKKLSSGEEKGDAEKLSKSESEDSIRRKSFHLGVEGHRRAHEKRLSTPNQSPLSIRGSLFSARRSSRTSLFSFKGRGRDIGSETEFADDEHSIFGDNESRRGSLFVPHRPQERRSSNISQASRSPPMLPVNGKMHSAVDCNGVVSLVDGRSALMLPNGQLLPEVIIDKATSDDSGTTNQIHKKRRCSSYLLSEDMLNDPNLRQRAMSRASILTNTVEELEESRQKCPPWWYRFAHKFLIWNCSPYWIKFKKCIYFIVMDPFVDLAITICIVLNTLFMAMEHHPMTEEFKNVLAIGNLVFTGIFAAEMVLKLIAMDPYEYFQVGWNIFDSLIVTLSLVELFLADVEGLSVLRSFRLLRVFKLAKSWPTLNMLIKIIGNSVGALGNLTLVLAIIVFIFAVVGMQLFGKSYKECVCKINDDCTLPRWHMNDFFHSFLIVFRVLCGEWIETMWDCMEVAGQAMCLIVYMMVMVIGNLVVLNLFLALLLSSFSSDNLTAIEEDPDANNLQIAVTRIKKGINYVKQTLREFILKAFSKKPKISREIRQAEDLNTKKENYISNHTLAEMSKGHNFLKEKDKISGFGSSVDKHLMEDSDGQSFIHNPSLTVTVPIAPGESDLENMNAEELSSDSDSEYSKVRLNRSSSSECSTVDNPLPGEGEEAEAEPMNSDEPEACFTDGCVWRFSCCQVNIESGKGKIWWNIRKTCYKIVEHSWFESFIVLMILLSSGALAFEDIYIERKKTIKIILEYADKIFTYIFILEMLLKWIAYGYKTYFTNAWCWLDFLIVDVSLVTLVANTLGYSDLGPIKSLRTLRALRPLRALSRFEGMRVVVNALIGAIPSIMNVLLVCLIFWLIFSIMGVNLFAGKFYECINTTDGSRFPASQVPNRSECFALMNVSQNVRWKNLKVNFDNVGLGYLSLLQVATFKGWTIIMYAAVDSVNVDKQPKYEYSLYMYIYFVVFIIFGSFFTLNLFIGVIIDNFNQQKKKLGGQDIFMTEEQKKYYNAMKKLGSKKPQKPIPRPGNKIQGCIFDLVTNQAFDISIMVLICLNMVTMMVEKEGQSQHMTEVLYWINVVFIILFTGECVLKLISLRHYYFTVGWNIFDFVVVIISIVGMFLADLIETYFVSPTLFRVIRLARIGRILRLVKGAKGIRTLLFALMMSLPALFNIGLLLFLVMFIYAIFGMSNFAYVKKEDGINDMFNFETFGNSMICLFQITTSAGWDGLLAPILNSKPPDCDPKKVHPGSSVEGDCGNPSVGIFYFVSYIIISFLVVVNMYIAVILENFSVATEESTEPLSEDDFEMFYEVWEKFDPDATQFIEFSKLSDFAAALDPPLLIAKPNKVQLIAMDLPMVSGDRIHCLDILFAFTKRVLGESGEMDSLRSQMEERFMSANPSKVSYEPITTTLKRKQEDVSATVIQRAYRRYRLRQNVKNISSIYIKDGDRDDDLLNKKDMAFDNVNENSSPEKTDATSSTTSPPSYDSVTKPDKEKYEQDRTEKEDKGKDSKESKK
In another series the target is hERG (KCNH2) (Homo sapiens, UniProt Q12809). In words: (§1) Displacement of [35S]MK-0499 from human ERG expressed in HEK293 cells at 10 uM […]. The conditions noted are these: HEK293 cells expressing human ERG, probe [35S]MK-0499. It counts as cell-based.
Series [2] addresses T1, Sodium channel protein type 9 subunit alpha. The series can be described thus: Inhibition of human Nav1.7 channel expressed in HEK293 cells at 1 uM by FRET assay. Format: cell-based.
Target sequence in this assay (Q15858 whole entry, looked up): as the sequence (Q15858 whole entry) above
Series [3] in a line: Plasma clearance in Sprague-Dawley rat at 1 mg/kg, iv or 3 mg/kg, po. Format: ADME, organism-based.
Series [4] in a line: Half life in Sprague-Dawley rat at 1 mg/kg, iv or 3 mg/kg, po. Format: ADME, organism-based. The conditions noted are these: in vivo.
Series [5] in a line: Oral bioavailability in Sprague-Dawley rat at 3 mg/kg. It counts as ADME, organism-based. The conditions noted are these: in vivo.
In series [6] the test system is Rattus norvegicus. The series can be described thus: Analgesic activity in SNL rat neuropathic pain model assessed as reversal of allodynia at 10 mg/kg, po after 3 hrs. Format: functional.
The test system of series [7] is Rattus norvegicus. In words: Analgesic activity in SNL rat neuropathic pain model assessed as reversal of allodynia at 10 mg/kg, po after 4 hrs. Format: functional.
Series [8] concerns Rattus norvegicus. The series can be described thus: Analgesic activity in SNL rat neuropathic pain model assessed as reversal of allodynia at 10 mg/kg, po after 2 hrs. Format: functional.
The target in series [9] is Voltage-gated inwardly rectifying potassium channel KCNH2 (Homo sapiens, UniProt Q12809). Described as §1. The conditions noted are these: hek293, 10 µM, 10 µM. Format: cell-based.
Chain of Voltage-gated inwardly rectifying potassium channel KCNH2 (Q12809 whole entry): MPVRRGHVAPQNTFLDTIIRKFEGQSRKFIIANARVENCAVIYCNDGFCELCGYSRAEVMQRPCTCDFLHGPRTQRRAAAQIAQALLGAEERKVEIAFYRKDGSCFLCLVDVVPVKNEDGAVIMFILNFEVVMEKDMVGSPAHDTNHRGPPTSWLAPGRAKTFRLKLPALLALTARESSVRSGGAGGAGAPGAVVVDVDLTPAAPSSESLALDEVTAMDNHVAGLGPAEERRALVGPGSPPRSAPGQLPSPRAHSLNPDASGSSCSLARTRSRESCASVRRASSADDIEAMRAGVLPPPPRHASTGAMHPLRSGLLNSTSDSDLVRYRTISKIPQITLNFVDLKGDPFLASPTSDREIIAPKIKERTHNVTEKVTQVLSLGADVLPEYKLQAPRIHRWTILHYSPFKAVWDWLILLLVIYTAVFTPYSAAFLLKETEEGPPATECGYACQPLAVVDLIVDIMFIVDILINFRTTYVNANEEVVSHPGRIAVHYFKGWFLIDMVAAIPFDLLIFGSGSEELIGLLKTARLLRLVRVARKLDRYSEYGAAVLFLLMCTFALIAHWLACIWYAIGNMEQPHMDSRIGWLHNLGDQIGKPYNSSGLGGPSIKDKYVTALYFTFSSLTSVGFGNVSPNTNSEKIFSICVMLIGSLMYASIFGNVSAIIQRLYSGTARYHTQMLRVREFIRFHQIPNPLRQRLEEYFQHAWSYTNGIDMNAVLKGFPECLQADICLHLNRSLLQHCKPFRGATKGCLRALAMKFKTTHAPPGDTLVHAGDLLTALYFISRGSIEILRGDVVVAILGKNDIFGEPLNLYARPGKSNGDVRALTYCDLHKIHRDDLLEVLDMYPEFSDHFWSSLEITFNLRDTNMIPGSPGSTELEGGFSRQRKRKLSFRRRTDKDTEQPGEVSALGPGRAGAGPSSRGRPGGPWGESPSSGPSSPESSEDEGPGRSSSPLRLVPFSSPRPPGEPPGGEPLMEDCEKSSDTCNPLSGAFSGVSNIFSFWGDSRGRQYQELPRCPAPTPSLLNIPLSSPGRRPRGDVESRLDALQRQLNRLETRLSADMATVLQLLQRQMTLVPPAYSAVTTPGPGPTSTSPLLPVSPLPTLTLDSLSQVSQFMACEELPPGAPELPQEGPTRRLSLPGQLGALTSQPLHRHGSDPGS

Chain of hERG (KCNH2) (Q12809 whole entry): as above

By IC50 is commonly meant the concentration at which inhibition is half-maximal. A low value points to higher potency. The inhibition is the percentage by which the read-out fell short of the control. In turn, `O=C(NC1(c2ccccc2)CCC1)[C@@H]1CCC[C@H]1c1cc(-c2ccc(C(F)(F)F)cc2O)on1` displayed an IC50 in series [1] of 300 nM. Besides, 10 µM produced 72% inhibition on hERG (KCNH2).

As to `O=C(NC1(c2ccc(F)cc2)CCC1)[C@@H]1CCC[C@H]1c1cc(-c2ccccc2)on1`, inhibition in series [1] was half-maximal at 84 nM (IC50). The inhibition at 10 µM at hERG (KCNH2) turned out to be 81%. `O=C(NCc1ccccc1)[C@@H]1CCC[C@H]1c1cc(-c2ccccc2)on1`: in series [2], the inhibition amounted to 37%. For the same compound, the inhibition at 10 µM on hERG (KCNH2) came to 35%. As to `O=C(NC1(c2ccccc2)CCC1)[C@@H]1CCC[C@H]1c1cc(-c2cccc(OC(F)(F)F)c2O)on1`, the 50% inhibitory concentration (IC50) in [1] was 260 nM. Further, at hERG (KCNH2), the inhibition at 10 µM was found to be 47%. The compound `O=C(NC1(c2ccccc2)CC(F)(F)C1)[C@@H]1CCC[C@H]1c1cc(-c2ccccc2)on1` returned an inhibition in series [2] of 41%. At hERG (KCNH2), this compound registered an inhibition at 10 µM of 27%.

The compound `O=C(NC1(c2ccccc2)CCC1)[C@@H]1CCC[C@H]1c1cc(-c2cc(C(F)(F)F)ccc2O)on1` gave an inhibition in [2] of 1%. In turn, `O=C(NC1(c2ccccc2)CCC1)[C@@H]1CCC[C@H]1c1cc(-c2c(O)cccc2C(F)(F)F)on1` yielded an inhibition in series [2] of 1%. In turn, `O=C(NC1(c2ccccc2)CCC1)[C@@H]1CCC[C@H]1c1cc(-c2ccccc2O)on1` returned an inhibition in [2] of 44%. At hERG (KCNH2), this compound yielded an inhibition at 10 µM of 54%.

On to `O=C(NC1(c2ccccc2)CCCC1)[C@@H]1CCC[C@H]1c1cc(-c2ccccc2)on1`, for which, in [1], half-maximal inhibition (IC50) was put at 220 nM. The same compound had an inhibition at 10 µM on hERG (KCNH2) of 85%. As to `O=C(NC1(c2ccccc2)CCC1)[C@@H]1CCC[C@H]1c1cc(-c2cccc(O)c2)on1`, the IC50 in series [1] was determined as 210 nM. The compound further came in with an inhibition at 10 µM on hERG (KCNH2) of 64%. The compound `CC(NC(=O)[C@@H]1CCC[C@H]1c1cc(-c2ccccc2)on1)c1ccccc1` (some centres undefined) registered an IC50 in series [1] of 1700 nM. At hERG (KCNH2), this compound returned an inhibition at 10 µM of 47%.

Take `CC(C)(NC(=O)[C@@H]1CCC[C@H]1c1cc(-c2ccccc2)on1)c1ccccc1`: in series [1], the IC50 is 430 nM. For the same compound, at hERG (KCNH2), the inhibition at 10 µM was 45%. In [1], `O=C(NC1(c2ccccc2)CCC1)[C@@H]1CCC[C@H]1c1cc(-c2cccc(C(F)(F)F)c2O)on1` (stereo in doubt; 30b) returned an IC50 of over 10000 nM.

`O=C(NC1(c2ccccc2)CCC1)[C@@H]1CCC[C@H]1c1cc(-c2cccc(C(F)(F)F)c2O)on1` (stereo in doubt; 30) displayed an IC50 in series [1] of 340 nM. The compound also yielded an inhibition at 10 µM at hERG (KCNH2) of 45%. In turn, `O=C(NC1(c2ccccc2)CC(O)C1)[C@@H]1CCC[C@H]1c1cc(-c2ccccc2)on1` (some centres undefined) displayed an IC50 in series [1] of over 5000 nM. `O=C(NC1(c2ccccc2F)CCC1)[C@@H]1CCC[C@H]1c1cc(-c2ccccc2)on1` displayed an IC50 in series [1] of 450 nM. Also, the inhibition at 10 µM at hERG (KCNH2) came out at 40%. In turn, `COc1ccc(-c2cc([C@@H]3CCC[C@H]3C(=O)NC3(c4ccccc4)CCC3)no2)cc1` returned an IC50 in [1] of 180 nM. At hERG (KCNH2), this compound showed an inhibition at 10 µM of 44%. Compound `O=C(NC1(c2ccccc2)CCC1)[C@@H]1CCC[C@H]1c1cc(-c2ccc(O)c(C(F)(F)F)c2)on1` had an inhibition in [2] of 0%. Compound `O=C(NC1(c2ccccc2)CCC1)[C@@H]1CCC[C@H]1c1cc(-c2cccc(=O)[nH]2)on1` registered an inhibition in series [2] of 0%.

For `O=C(NC1(c2ccccc2)CC(F)C1)[C@@H]1CCC[C@H]1c1cc(-c2ccccc2)on1` (stereo in doubt; 17), the IC50 in series [1] was determined as 180 nM. Moreover, 10 µM produced 46% inhibition on hERG (KCNH2). In [2], `CC1(c2ccccc2)CC([C@@H]2CCC[C@H]2C(=O)NC2(c3ccccc3)CCC2)=NO1` (some centres undefined) had an inhibition of 8%. Usually half-life stands for how long it takes for the measured level to halve. Low values mean fast loss, high ones slow loss. In general, bioavailability refers to dose-corrected exposure relative to a reference, in per cent. A higher bioavailability goes with much systemic uptake. For the compound `O=C(NC1(c2ccccc2)CCC1)[C@@H]1CCC[C@H]1c1cc(-c2cccc(OC(F)(F)F)c2)on1`, the clearance in [3] was 89 mL/min/kg. In series [1], the IC50 is 370 nM. This compound also showed a half-life in [4] of 156 min. At hERG (KCNH2), the inhibition at 10 µM is 55%. Moreover, the bioavailability in series [5] is 46%. Take `COc1cccc(-c2cc([C@@H]3CCC[C@H]3C(=O)NC3(c4ccccc4)CCC3)no2)n1`: the IC50 in series [1] was determined as 190 nM. Moreover, the inhibition at 10 µM at hERG (KCNH2) stood at 54%. For `O=C(NC1(c2cccc(C(F)(F)F)c2)CCC1)[C@@H]1CCC[C@H]1c1cc(-c2ccccc2)on1`, the IC50 in series [1] came to 590 nM. At hERG (KCNH2), this compound returned an inhibition at 10 µM of 89%. `CN(Cc1ccc(-c2ccccc2S(N)(=O)=O)cc1)C(=O)[C@@H]1CCC[C@H]1C(=O)NCc1ccc(OC(F)(F)F)cc1`: the Activity was 35% in the series on Rattus norvegicus [6], 28% in the series with Rattus norvegicus [7] and 30% with Rattus norvegicus [8]. `O=C(NC1(c2cccc(F)c2)CCC1)[C@@H]1CCC[C@H]1c1cc(-c2ccccc2)on1` gave an IC50 in series [1] of 110 nM. The compound further showed an inhibition at 10 µM at hERG (KCNH2) of 64%. With `O=C(NC1(c2ccccc2)CCCCC1)[C@@H]1CCC[C@H]1c1cc(-c2ccccc2)on1`, half-maximal inhibition in [1] (IC50) was put at 580 nM. As for `O=C(NC1(c2ccccc2)CCC1)[C@@H]1CCC[C@H]1c1cc(-c2ccc(O)cc2)on1`, in [1], the IC50 amounted to 130 nM. Moreover, 10 µM produced 15% inhibition at hERG (KCNH2). In [1], `O=C(NC1(c2ccccc2)CC(F)C1)[C@@H]1CCC[C@H]1c1cc(-c2ccccc2)on1` (stereo in doubt; 18) showed an IC50 of 160 nM. In [9], the “inhibition (INH)” value was found to be 59%. As to `COc1ccccc1-c1cc([C@@H]2CCC[C@H]2C(=O)NC2(c3ccccc3)CCC2)no1`, the IC50 in [1] stood at 390 nM. The compound further came in with an inhibition at 10 µM at hERG (KCNH2) of 54%.

Consider `O=C(NC1(c2ccccc2)CCC1)[C@@H]1CCC[C@H]1c1cc(-c2ccccc2)on1`, for which the IC50 in series [1] is 120 nM. On hERG (KCNH2), this compound displayed an inhibition at 10 µM of 37%. In turn, `O=C(NC1(c2ccccc2)CCC1)[C@@H]1CCC[C@H]1c1cc(-c2ccccc2Cl)on1` returned an IC50 in [1] of 180 nM. The compound further displayed an inhibition at 10 µM on hERG (KCNH2) of 76%. With `COC1CC(NC(=O)[C@@H]2CCC[C@H]2c2cc(-c3ccccc3)on2)(c2ccccc2)C1` (some centres undefined), the IC50 in series [1] turned out to be 380 nM. This compound also came in with an inhibition at 10 µM on hERG (KCNH2) of 51%.

In [1], `O=C(NC1(c2ccccc2)CCC1)[C@@H]1CCC[C@H]1c1cc(-c2ccccc2C(F)(F)F)on1` registered an IC50 of 740 nM. Further, the inhibition at 10 µM on hERG (KCNH2) worked out at 91%. Compound `O=C(NC1(c2ccccc2)CCC1)[C@@H]1CCC[C@H]1c1cc(-c2cccc(C(F)(F)F)c2O)on1` (stereo in doubt; 30a) registered an IC50 in series [1] of 430 nM. Turning to `O=C(NC1(c2ccccc2)CCC1)[C@@H]1CCC[C@H]1c1cc(-c2cccc(C(F)(F)F)n2)on1`, the clearance in [3] was found to be 135 mL/min/kg. The IC50 in series [1] was 220 nM. This compound showed a half-life in [4] of 90.6 min. At hERG (KCNH2), this compound showed an inhibition at 10 µM of 22%. Besides, the bioavailability in series [5] came to 36%. As to `COc1cccc(-c2cc([C@@H]3CCC[C@H]3C(=O)NC3(c4ccccc4)CCC3)no2)c1`, half-maximal inhibition in [1] (IC50) required 20 nM. At hERG (KCNH2), this compound yielded an inhibition at 10 µM of 62%. For `O=C(NC1(c2ccccc2)CC1)[C@@H]1CCC[C@H]1c1cc(-c2ccccc2)on1`, in that order: 440 nM and 47%.
